Assay results reported in publication PMC10354095, “Insights into peculiar fungal LPMO family members holding a short C-terminal sequence reminiscent of phosphate binding motifs” (Scientific Reports, 2023).

Target: T1, CciAA9-X282-CBM1 (Coprinopsis cinerea, UniProt A8NCG7)
T1 construct: gene AA9-X282; AA9-X282-linker-CBM1; C-terminal poly-His tag; Pichia pastoris X33
Assay: Amplex Red/HRP oxidase assay (H2O2 production)
Format: biochemical
Conditions: reductant (electron donor) at 50 uM, O2 as co-substrate; 1 uM enzyme; sodium phosphate 50 mM, pH 7.0

T1 sequence (A8NCG7 19-342): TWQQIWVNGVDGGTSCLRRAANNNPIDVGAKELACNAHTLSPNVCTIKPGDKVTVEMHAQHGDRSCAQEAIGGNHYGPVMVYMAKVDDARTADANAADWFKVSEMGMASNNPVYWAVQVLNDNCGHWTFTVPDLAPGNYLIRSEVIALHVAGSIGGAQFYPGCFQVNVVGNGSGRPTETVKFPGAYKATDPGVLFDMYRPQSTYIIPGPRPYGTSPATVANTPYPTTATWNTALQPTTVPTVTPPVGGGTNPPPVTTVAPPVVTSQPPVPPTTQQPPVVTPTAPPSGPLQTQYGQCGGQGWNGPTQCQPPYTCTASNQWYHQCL

For `O=C1O[C@H]([C@@H](O)CO)C(O)=C1O` [ascorbic acid], the “Amplex Red/HRP oxidase assay (H2O2 production)” value was “all AA9-X282 LPMOs displayed an oxidase (i.e. H2O2 producing) activity”.
